Laboratory results reported in patent publication US8759564B2, “Amidoacetonitrile compounds having pesticidal activity” (Novartis AG, priority 2009, dated 2014).

Assays:
[1] = system: Haemonchus contortus; experiment: In-vivo test in Mongolian gerbils using peroral application; conditions: dose 0.32 mg/kg, H. contortus
Method: (§1) 2. In-vivo Test on Trichostrongylus colubriformis and Haemonchus contortus in Mongolian Gerbils (Meriones unquiculatus) Using Peroral Application Six to eight week old Mongolian gerbils are infected through a stomach tube with ca. 2000 third instar larvae each of T. colubriformis and H contortus. 6 days after infection, the gerbils are treated by peroral application with the test compounds, dissolved in a mixture of 2 pasts DMSO and 1 part polyethylene glycol (PEG 400). On day 9 (3 days after treatment), when most of the H. cantortus that are still present are late 4th instar larvae and most of the T. colubriformis are immature adults, the gerbils are killed in order to count the worms. The efficacy is calculated as the % reduction of the number of worms in each gerbil, compared with the geometric average of number of worms from 6 infected and untreated gerbils.

[2] = system: Trichostrongylus colubriformis; experiment: as above; conditions: dose 0.32 mg/kg, T. colubriformis
Method: as §1

[3] = system: Teladorsagia circumcincta; experiment: In-vivo test in sheep using peroral application; conditions: oral, worm burden in abomasum 19 to 21 days after treatment
Method: 3. In-Vivo Test on Teladorsagia circumcincta in Sheep Using Peroral Application Sheep are infected with 6,000 to 8,000 third stage larvae of Teladorsagia circumcincta (Tca) 7 to 5 days prior to treatment Animals in the treated groups are treated orally at a dose of 2 or 5 mg per kg bodyweight. […] The animals are euthanized 19 to 21 days after treatment and the worm burden in the abomasum is examined. Efficacy assessment of the compounds is determined by comparison of the treated and untreated groups worm counts, calculated using Abbott's formula as follows: % efficacy=100×(C−T)/C, where C is the geometric mean worm count of each species for the untreated control group and T, the geometric mean worm count of each species for the treated group.

[4] = system: Ostertagia ostertagi; experiment: In-vivo test in cattle using peroral application; conditions: oral, worm burden in abomasum 23 to 28 days after treatment
Method: 4. In-vivo Test on Ostertagia ostertagi in Cattle Using Peroral Application Cattle are infected with 7,000 to 10,000 third stage larvae of Ostertagia ostertagi (Oo) 7 to 5 days prior to treatment. […] The animals are euthanized 23 to 28 days after treatment and the worm burden in the abomasum is examined. Efficacy assessment of the compounds is determined by comparison of the treated and untreated groups worm counts, calculated using Abbott's formula as follows: % efficacy=100×(C−T)/C; where C is the geometric mean worm count of each species for the untreated control group and T, the geometric mean worm count of each species for the treated group.

melting point [°C] | Compound | efficacy (% reduction of the number of worms) [1] [%] | efficacy (% reduction of the number of worms) [2] [%] | Efficacy against Tca [%] ([3]; dose 2 mg/kg) | Efficacy against Oo [%] ([4]; dose 5 mg/kg) | Efficacy against Tca [%] ([3]; dose 5 mg/kg) | Efficacy against Oo [%] ([4]; dose 20 mg/kg)
 | CC(C#N)(COc1cc(C#N)ccc1Oc1ccc(OC(F)(F)F)cc1Cl)NC(=O)c1ccc(OC(F)(F)F)cc1 (racemic) [Compound No. 1.1, N-[1-cyano-1-methyl-2-(5-cyano-2-{2-chloro-4-trifluoromethoxy-phenoxy}-phenoxy)-ethyl]-4-trifluoromethoxybenzamide] | 100 | 100 | 99 | 100 |  | 
136 to 137 | CC(C#N)(COc1cc(C#N)ccc1Oc1ccc(OC(F)(F)F)cc1Cl)NC(=O)c1ccc(SC(F)(F)F)cc1 (racemic) [Compound No. 1.7, N-[1-cyano-1-methyl-2-(5-cyano-2-{2-chloro-4-trifluoromethoxy-phenoxy}-phenoxy)-ethyl]-4-trifluoromethylsulfanylbenzamide] | 100 | 100 | 99 | 100 |  | 
128 to 130 | CC(C#N)(COc1cc(C#N)ccc1Oc1ccc(OC(F)(F)F)cc1Cl)NC(=O)c1ccc(S(=O)(=O)C(F)(F)F)cc1 (racemic) [Compound No. 1.12, N-[1-cyano-1-methyl-2-(5-cyano-2-{2-chloro-4-trifluoromethoxy-phenoxy}-phenoxy)-ethyl]-4-trifluoromethylsulfonylbenzamide] | 98 | 98 | 99 | 100 |  | 
 | C[C@@](C#N)(COc1cc(C#N)ccc1Oc1ccc(OC(F)(F)F)cc1Cl)NC(=O)c1ccc(OC(F)(F)F)cc1 [Compound No. 1.3, N-[(1R)-1-cyano-2-(5-cyano-2-{2-chloro-4-trifluoromethoxyphenoxy}-phenoxy)-1-methylethyl]-4-trifluoromehoxy-benzamide] | 100 | 100 |  |  |  | 
 | CC(C#N)(COc1cc(Cl)ccc1Oc1ccc(Cl)cc1Cl)NC(=O)c1ccc(OC(F)(F)F)cc1 (stereo not shown) [reference compound] |  |  |  |  | 15 | 
 | CC(C#N)(COc1cc(C#N)ccc1Oc1ccc(Cl)cc1Cl)NC(=O)c1ccc(OC(F)(F)F)cc1 (stereo not shown) [reference compound] |  |  |  |  | 0 | 55
